Data from patent US10730887B2, “Compound containing tricyclic heteroaryl group” (Hangzhou Innogate Pharma Co., Ltd., priority 2016, dated 2020).
pIC50: −log10 of the molar value.

What was measured:
CDK4/CycD3 = CDK4/CycD3 (Homo sapiens, UniProt P11802); assay: CDK4 kinase activity inhibition, Caliper mobility shift assay; assay type: biochemical
Protocol: (§1) CDK2/CycA2, CDK4/CycD3 and CDK6/cycD3 protein kinase activities were determined using the Caliper mobility shift assay. The compound was dissolved in DMSO and diluted with kinase buffer (CDK2/CycA2 and CDK6/cycD3 with 50 mM HEPES (pH 7.5), 10 mM MgCl2, 0.0015% Brij-35, and 2 mM dithiothreitol; CDK4/CycD3 with 20 mM HEPES (pH 7.5), 10 mM MgCl2, 0.01% Triton X-100, and 2 mM dithiothreitol), 5 μl of a 5-fold final concentration of the compound (10% DMSO) was added to a 384-well plate. Add 10 μL of 2.5-fold […] enzyme solution and incubate for 10 minutes at room temperature, then add 10 μL of 2.5-fold substrate solution (corresponding enzyme and substrate concentration CDK2/CycA2 12 nM, ATP Kin 39 μM; CDK4/CycD3 10 nM, ATP Km 221 μM; CDK6/cycD3 15 nM, ATP Km […]) Incubate at 28° C. (60 min CDK2, 180 min CDK4, 60 min CDK6) followed by 25 μl stop solution (100 mM HEPES (pH 7.5), 0.015% Brij-35, 0.2% Coating Reagent #3, 50 mM EDTA) Stop the reaction. Conversion rate data was read on a Caliper EZ Reader 11 (Caliper Life Sciences). The conversion rate was converted into inhibition rate data (% inhibition rate=(max−conversion rate)/(max−min)*100) Where max is the conversion of the DMSO control and min is the conversion of the enzyme-free control. Curves were plotted with compound concentration and inhibition rate on the horizontal and vertical coordinates, and the curve was fitted using XLFit excel add-in version 4.3.1 software and IC50 was calculated.

CDK2/CycA2 = CDK2/CycA2 (Homo sapiens, UniProt P24941); assay: CDK2 kinase activity inhibition, Caliper mobility shift assay; assay type: biochemical
Protocol: as §1

CDK6/cycD3 = CDK6/cycD3 (Homo sapiens, UniProt Q00534); assay: CDK6 kinase activity inhibition, Caliper mobility shift assay; assay type: biochemical
Protocol: as §1

[1] = Pharmacokinetic study in mice, intragastric administration; assay type: in vivo; conditions: mouse, male ICR mice, PO dose 5 mg/kg, plasma; for AUC(0-t): read-out: AUC(0-24)
Protocol: Instrument: API4000+LC/MS instrument manufactured by AB Sciex. All measurement data was collected and processed by Analyst 1.6.3 software, and data was calculated and processed by Microsoft Excel. Using the DAS 3.2.8 software, the statistical moment method was used to calculate the pharmacokinetic parameters. t mainly includes kinetic parameters Tmax, T½, Cmax, AUC(0-t) and the like Column: ACQUITY UPLC BEH C18 (2.1 mm×50 mm, 1.7 μm), column temperature 40° C.; mobile phase A is water (0.1% formic acid+5 mM ammonium acetate), mobile phase B is acetonitrile (0.1% acetic acid). The flow rate was 0.30 ml/min and the isocratic elution of 90% B was maintained for 1.5 minutes. Injection volume: 5 μL.
Animals: 12 male ICR mice, weighing 22-26 g, were used after 2 days of feeding in the laboratory of the experimental animal center. They were fasted 12 hours before the administration and 4 hours after the administration, and were free to drink during the test. Mice were randomly divided into four groups of 3 animals each. After intragastric administration, blood samples were taken at two different time points in each group.
Solvent: 0.5% Methylcellulose (aqueous solution containing 0.4% Tween 80). Formulation of intragastric administration solution. The compound is accurately weighed, added to the solvent, and sonicated at room temperature for 5 minutes to completely dissolve the drug to prepare a drug solution of 0.33 mg/ml.
Drug sample: A representative compound of the structure represented by the patent formula (I) of the present invention generally adopts a plurality of samples having similar structures (molecular weight difference of more than 2 units), accurately weighed, and administered together (cassette PK). This allows multiple compounds to be screened simultaneously and their oral absorption rates compared. Single drug administration was also used to study the pharmacokinetics of drug samples in mice.
Blood was taken from the eyelids at 0.25, 0.5, 1, 2, 4, 8, 12, and 24 hours after intragastric administration. In the heparin-treated tube, the supernatant was centrifuged for LC-MS/MS analysis.
Accurately weigh the compounds to different concentrations, perform quantitative analysis on the mass spectrometer to establish a standard curve, and then test the concentration of the compound in the above plasma to obtain the concentration of the compound at different time points. All the measured data were collected and processed by the relevant software, and the statistical moment method was used to calculate the pharmacokinetic parameters (mainly including the kinetic parameters Tmax, T1/2, Cmax, AUC(0-t), etc.).

Jak1 = Jak1 (Homo sapiens, UniProt P23458); assay: Jak1 kinase activity inhibition, Caliper Reader; assay type: biochemical
Protocol: (§2) Kinase JAk1 and Jak2 enzyme inhibition IC50 evaluation experiments: The buffer was configured with the following components: 50 mM HEPES, pH 7.5, 0.00015% Brij-35. Compounds were placed in a concentration gradient in 100% DMSO and diluted to 10% DMSO with buffer and added to 384 well plates. For example, when the initial concentration of the compound is […], it is made into 12.5 μM with 100% DMSO, and diluted by 5 or 6 concentrations, and then diluted 10-fold with buffer to prepare an intermediate dilution of the compound containing 10% DMSO. Transfer 5 μL, to 384-well plate. The Jak1 and Jak2 enzymes were diluted to the optimal concentration with the following buffer: 50 mM HEPES, pH 7.5, 0.00015% Brij-35, 2 mM DTT. Transfer 10 μL to a 384-well plate and incubate with the compound for 10-15 minutes. The substrate was diluted to the optimal concentration with the following buffer: 50 mM HEPES, pH 7.5, 0.00015% Brij-35, 10 mM MgCl2, adenosine triphosphate at Km. The reaction was initiated by adding 10 μL to a 384-well plate and reacted at 28° C. for 1 hour. The conversion rate was then read using a Caliper Reader and the inhibition rate was calculated. The formula is as follows: Percent inhibition=(max−conversion)/(max−min)*100. Where max is the conversion of the DMSO control and min is the conversion of the enzyme-free control. Fit the IC50 value with XLFit excel add-in version 5.4.0.8. Fitting formula: Y=Bottom+(Top−Bottom)/(1+(IC50/X)^HillSlope).

Jak2 = Jak2 (Homo sapiens, UniProt O60674); assay: Jak2 kinase activity inhibition, Caliper Reader; assay type: biochemical
Protocol: as §2

SYK = SYK (Homo sapiens, UniProt P43405); assay: Syk kinase activity inhibition, Caliper mobility shift assay; assay type: biochemical
Protocol: SYK protein kinase activity was determined using the Caliper mobility shift assay. The compound was dissolved in DMSO and diluted with kinase buffer (20 mM HEPES, 0.01% Triton X-100, 5 mM MgCl2, 1 mM MnCl2, 2 mM DTT), and 5 μL of 5 times final concentration was added to the 384-well plate Compound (10% DMSO). After adding 10 μL of 2.5-fold enzyme (with SYK) solution, incubate for 10 minutes at room temperature, and then add 10 μL of 2.5-fold substrate (Peptide FAM-P22 and ATP) solution. Incubate at 28° C. for 30 minutes, then stop the reaction by adding 25 μL of stop solution (100 mM HEPES, 0.015% Brij-35, 0.2% Coating Reagent #13, 50 mM EDTA, pH 7.5). Conversion rate data was read on a Caliper EZ Reader II (Caliper Life Sciences) The conversion rate was converted into inhibition rate data (% inhibition rate=(max−conversion rate)/(max−min)*100). Where max is the conversion of the DMSO control and min is the conversion of the enzyme-free control. Curves were plotted with compound concentration and inhibition rate on the horizontal and vertical coordinates, and the curve was fitted using XLFit excel add-in version 4.3.1 software and IC50 was calculated.

Sequence of Jak2 (O60674 whole entry, species assumed): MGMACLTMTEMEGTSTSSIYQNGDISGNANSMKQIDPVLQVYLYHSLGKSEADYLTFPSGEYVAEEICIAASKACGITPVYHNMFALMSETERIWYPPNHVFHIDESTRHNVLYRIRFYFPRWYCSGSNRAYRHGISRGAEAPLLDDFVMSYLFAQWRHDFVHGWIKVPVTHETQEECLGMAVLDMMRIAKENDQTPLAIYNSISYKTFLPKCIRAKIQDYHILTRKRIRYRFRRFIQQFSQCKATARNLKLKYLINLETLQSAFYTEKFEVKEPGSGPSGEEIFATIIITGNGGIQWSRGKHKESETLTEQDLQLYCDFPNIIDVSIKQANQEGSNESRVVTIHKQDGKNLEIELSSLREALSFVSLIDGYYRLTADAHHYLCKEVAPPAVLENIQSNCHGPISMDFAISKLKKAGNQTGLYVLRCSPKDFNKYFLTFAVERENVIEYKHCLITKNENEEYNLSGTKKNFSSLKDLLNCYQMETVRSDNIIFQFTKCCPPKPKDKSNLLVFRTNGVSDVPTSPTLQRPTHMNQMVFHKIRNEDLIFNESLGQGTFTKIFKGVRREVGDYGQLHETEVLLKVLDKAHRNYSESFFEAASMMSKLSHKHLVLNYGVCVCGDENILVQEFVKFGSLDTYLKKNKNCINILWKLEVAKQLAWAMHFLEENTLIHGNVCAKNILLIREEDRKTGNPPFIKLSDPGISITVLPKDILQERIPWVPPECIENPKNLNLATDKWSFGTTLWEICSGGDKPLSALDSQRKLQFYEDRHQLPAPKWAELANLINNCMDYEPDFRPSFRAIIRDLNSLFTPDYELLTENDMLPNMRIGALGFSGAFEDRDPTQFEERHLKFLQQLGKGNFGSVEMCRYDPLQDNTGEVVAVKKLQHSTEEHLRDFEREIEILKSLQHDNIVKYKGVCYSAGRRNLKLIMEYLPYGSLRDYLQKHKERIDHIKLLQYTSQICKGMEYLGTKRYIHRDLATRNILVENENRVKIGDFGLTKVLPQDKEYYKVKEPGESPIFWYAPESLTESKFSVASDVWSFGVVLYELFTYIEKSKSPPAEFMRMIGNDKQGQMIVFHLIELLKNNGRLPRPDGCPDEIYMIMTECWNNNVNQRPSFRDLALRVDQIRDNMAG
Sequence of CDK6/cycD3 (Q00534 whole entry, species assumed): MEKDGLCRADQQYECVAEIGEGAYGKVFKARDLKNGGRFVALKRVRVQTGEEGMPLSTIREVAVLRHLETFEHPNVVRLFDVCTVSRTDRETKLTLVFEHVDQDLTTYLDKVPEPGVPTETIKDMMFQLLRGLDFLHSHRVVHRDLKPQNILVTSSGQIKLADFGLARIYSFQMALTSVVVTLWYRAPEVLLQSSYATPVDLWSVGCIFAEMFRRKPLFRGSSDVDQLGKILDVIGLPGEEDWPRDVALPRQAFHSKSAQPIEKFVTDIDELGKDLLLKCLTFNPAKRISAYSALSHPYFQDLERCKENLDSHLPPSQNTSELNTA
Sequence of CDK6/cycD3 (P30281 whole entry partner, species assumed): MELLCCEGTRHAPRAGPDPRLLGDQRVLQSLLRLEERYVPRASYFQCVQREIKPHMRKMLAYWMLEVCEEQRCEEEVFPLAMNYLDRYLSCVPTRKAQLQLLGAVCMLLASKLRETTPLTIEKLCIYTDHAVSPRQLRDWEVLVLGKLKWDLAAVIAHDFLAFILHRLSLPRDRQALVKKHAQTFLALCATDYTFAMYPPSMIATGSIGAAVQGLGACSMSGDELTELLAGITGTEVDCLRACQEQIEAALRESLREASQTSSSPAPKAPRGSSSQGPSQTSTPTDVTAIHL
Sequence of Jak1 (P23458 whole entry, species assumed): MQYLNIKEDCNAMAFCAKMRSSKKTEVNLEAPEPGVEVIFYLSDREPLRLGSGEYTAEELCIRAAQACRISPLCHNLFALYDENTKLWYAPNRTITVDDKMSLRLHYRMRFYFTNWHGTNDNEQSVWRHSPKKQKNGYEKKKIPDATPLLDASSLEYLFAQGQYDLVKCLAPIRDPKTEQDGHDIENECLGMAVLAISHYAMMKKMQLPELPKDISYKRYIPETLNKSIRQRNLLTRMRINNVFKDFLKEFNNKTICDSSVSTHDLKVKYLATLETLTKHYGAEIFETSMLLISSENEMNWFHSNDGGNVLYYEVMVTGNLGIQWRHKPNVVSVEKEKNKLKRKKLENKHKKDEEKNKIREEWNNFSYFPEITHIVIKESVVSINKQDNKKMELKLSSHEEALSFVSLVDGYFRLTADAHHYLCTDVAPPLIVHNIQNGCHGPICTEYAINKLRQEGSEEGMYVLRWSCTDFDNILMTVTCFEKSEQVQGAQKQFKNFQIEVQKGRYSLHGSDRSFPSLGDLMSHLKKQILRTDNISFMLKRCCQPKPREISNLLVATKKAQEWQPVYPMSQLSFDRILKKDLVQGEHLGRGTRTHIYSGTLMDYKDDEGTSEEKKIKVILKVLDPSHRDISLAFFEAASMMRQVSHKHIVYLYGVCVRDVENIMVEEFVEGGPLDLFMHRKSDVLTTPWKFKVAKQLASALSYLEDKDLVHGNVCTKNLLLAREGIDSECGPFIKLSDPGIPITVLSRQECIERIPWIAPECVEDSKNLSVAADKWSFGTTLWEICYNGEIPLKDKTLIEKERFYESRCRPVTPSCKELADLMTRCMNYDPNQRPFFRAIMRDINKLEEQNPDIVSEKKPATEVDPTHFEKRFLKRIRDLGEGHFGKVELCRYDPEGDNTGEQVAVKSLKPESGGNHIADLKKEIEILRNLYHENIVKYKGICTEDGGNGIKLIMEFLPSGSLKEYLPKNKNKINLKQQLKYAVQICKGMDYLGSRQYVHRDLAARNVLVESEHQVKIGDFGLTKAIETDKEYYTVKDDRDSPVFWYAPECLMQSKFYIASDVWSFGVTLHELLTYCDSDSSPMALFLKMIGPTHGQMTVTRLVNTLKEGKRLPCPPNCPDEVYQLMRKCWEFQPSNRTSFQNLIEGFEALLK
Sequence of CDK4/CycD3 (P11802 whole entry, species assumed): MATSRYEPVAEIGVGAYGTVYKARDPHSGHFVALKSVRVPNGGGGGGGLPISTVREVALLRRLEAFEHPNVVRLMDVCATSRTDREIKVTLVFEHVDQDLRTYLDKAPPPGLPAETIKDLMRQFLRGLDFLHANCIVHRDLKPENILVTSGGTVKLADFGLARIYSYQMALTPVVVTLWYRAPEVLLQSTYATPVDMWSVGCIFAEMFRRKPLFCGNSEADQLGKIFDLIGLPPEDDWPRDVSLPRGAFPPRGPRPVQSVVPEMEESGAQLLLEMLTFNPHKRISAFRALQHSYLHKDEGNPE
Sequence of CDK4/CycD3 (P30281 whole entry partner, species assumed): as the sequence (P30281 whole entry partner, species assumed) above

pIC50 (CDK4/CycD3) | pIC50 (CDK2/CycA2) | pIC50 (CDK6/cycD3) | Cmax [1] [ng/mL] | Tmax [1] [h] | half-life [1] [h] | AUC(0-t) [1] [ng·h/mL] | pIC50 (Jak1) | pIC50 (Jak2) | pIC50 (SYK) | Compound
> 8.00 | > 8.00 | > 7.30 | – | – | – | – | – | – | – | Cc1nc2c(F)cc(-c3nc(Nc4ccc5c(c4)OC[C@H]4CN(C)CCN54)ncc3F)cc2n1C(C)C [Compound B1R]
> 8.00 | > 8.00 | > 7.30 | – | – | – | – | – | – | – | Cc1nc2c(F)cc(-c3nc(Nc4ccc5c(c4)OC[C@@H]4CN(C)CCN54)ncc3F)cc2n1C(C)C [Compound B1S]
> 8.00 | > 8.00 | > 7.30 | 495 | 1 | 5.72 | 2200 | – | – | – | Cc1nc2c(F)cc(-c3nc(Nc4ccc5c(c4)OC[C@H]4CN(C6CCOCC6)CCN54)ncc3F)cc2n1C(C)C [Compound B2R]
> 8.00 | > 8.00 | > 8.00 | – | – | – | – | – | – | – | Cc1nc2c(F)cc(-c3nc(Nc4ccc5c(c4)OC[C@H]4CN(C6CCN(C)CC6)CCN54)ncc3F)cc2n1C(C)C [Compound B3R]
– | – | – | – | – | – | – | > 7.00 | > 8.00 | > 8.00 | CCS(=O)(=O)N1CCN2c3ccc(Nc4ncc(C(N)=O)c(NC5CC5)n4)cc3OC[C@H]2C1 [Compound C1R]
– | – | – | – | – | – | – | > 6.30 | > 7.70 | > 7.30 | CN1CCC(N2CCN3c4ccc(Nc5ncc(C(N)=O)c(NC6CC6)n5)cc4OC[C@H]3C2)CC1 [Compound C2R]
– | – | – | – | – | – | – | > 7.00 | > 8.00 | > 7.30 | CC(=O)N1CCN2c3ccc(Nc4ncc(C(N)=O)c(NC5CC5)n4)cc3OC[C@H]2C1 [Compound C3R]
– | – | – | – | – | – | – | > 6.30 | > 7.70 | > 7.30 | NC(=O)c1cnc(Nc2ccc3c(c2)OC[C@H]2CN(C4CCOCC4)CCN32)nc1NC1CC1 [Compound C4R]
– | – | – | – | – | – | – | > 7.00 | > 8.00 | > 7.30 | CN1CCN2c3ccc(Nc4ncc(C(N)=O)c(NC5CC5)n4)cc3OC[C@H]2C1 [Compound C5R]
– | – | – | – | – | – | – | > 6.30 | > 7.30 | > 7.30 | NC(=O)c1cnc(Nc2ccc3c(c2)OC[C@H]2CN(C(=O)C(F)(F)F)CCN32)nc1NC1CC1 [Compound C6R]
– | – | – | 451 | 0.5 | 2.41 | 1240 | – | > 8.00 | > 8.00 | NC(=O)c1cnc(Nc2ccc3c(c2)OC[C@H]2CN(S(=O)(=O)C4CC4)CCN32)nc1NC1CC1 [Compound C10R]
